The record followed here is ChEMBL document CHEMBL4765282, “Design, synthesis and biological evaluation of 1H-pyrazolo [3,4-d]pyrimidine derivatives as PAK1 inhibitors that trigger apoptosis, ER stress and anti-migration effect in MDA-MB-231 cells” (Eur J Med Chem, 2020).

Assay [1] is described as follows: Effect on BEX2 gene expression in human MDA-MB-231 cells by Trizol reagent based RNA sequencing analysis relative to control. The assay is classed as functional.
The subject of assay [2] is MDA-MB-231. As to the kind of experiment: Induction of apoptosis in human MDA-MB-231 cells assessed as increase in early apoptosis measured after 24 hrs by Annexin V-FITC/propidium iodide staining based flow cytometry. The assay is classed as functional, cell-based. (Flow cytometry measures light scatter and fluorescence of single cells or particles in a stream.)
The subject of assay [3] is MDA-MB-231. The experiment in a line: Induction of apoptosis in human MDA-MB-231 cells assessed as late apoptotic cells at 40 uM measured after 24 hrs by Annexin V-FITC/propidium iodide staining based flow cytometry (reference value: 0.57%). The assay is classed as functional.

In the case of `O=C(Nc1cc(C(F)(F)F)cc(C(F)(F)F)c1)NC1CCN(c2ncnc3[nH]ncc23)CC1`, the “fold change (FC)” value in assay [1] is listed as over 2. For the same compound, the Activity result in the assay with MDA-MB-231 [2] is “Dose-dependent effect”; in the assay on MDA-MB-231 [3] it was 12.06%.
